Legend:
[1] = Tolerability / maximum tolerated dosage; conditions: in vivo
Experimental: TTI-7106 is used for these experiments near the maximum tolerated dosage (MTD) of 40 mg/kg. […] TTI-7106 is authenticated in batches based on the NMR spectroscopy and mass spectrometry. All experiments are carried out on equal groups of male and female mice.

B16.F10 melanoma cells = experiment: Surface calreticulin expression (immunogenic cell death) by flow cytometry; format: cell-based, mouse (C57BL/6); conditions: 24 hours of treatment
Experimental: B16.F10 melanoma cells were plated at 1.5-2.0×10^5 cells per well in 24-well plates in RPMI-1640 medium containing standard supplements and 10% fetal bovine serum (FBS) and incubated overnight at 37° C., 5% CO2. Compounds solubilized in dimethyl sulfoxide (DMSO) were added at the indicated concentrations and incubated for a further 24 hours at 37° C., 5% CO2. Control wells were treated with similar dilutions of DMSO. Cells were trypsinized and washed with FACS buffer (2% FBS+0.1% NaN3 in PBS) and seeded at 1-2×10^5 per well in 96-well round-bottom plates. Cells were stained with rabbit anti-calreticulin polyclonal antibody (1:100, Abcam ab2907) in FACS buffer for 30 minutes at 4° C. Following two washes, cells were labeled with goat anti-rabbit Alexa Fluor 488 (1:500, Thermo Fisher A11070) in FACS buffer for 30 minutes at 4° C. Cells were washed twice and labeled with 7-aminoactinomyosin D in order to exclude non-viable cells. Samples were immediately run on a BD LSR Fortessa flow cytometer and the data analyzed using FlowJo software.
(§1) Differences in tumor growth curves were evaluated by linear mixed models for longitudinal analysis and Kaplan-Meier survival curves were evaluated by log rank test. Differences in calreticulin expression were determined by two-way ANOVA with Bonferroni post-test. All data were analyzed using Graphpad Prism (version 7) or SAS (version 9.4) software.

B16.F10 tumors = experiment: In vivo tumor growth, survival and regression in the B16.F10 melanoma model with anti-PD-1 therapy; design: species or system C57BL/6J mice
Experimental: Groups of 8-week old C57BL/6J female mice were inoculated with 1×10^5 freshly cultured B16.F10 tumor cells subcutaneously in the left flank. Mice were monitored for the development of tumors and when palpable were randomized into groups. Mice received αPD-1 (clone RMP1-14; BioXCell) or control rat IgG (Sigma) at 200 μg/day intraperitoneally in a volume of 200 μl PBS twice per week for 3 weeks. Mice received daily TTI-4242 or TTI-3114 at 30 mg/kg/day or vehicle only for 5 consecutive days in a total volume of 100 μL. Tumors were measured with digital calipers and the tumor volume calculated as (length×width^2)/2. Mice were euthanized when the tumor volume exceeded 1500 mm^3, developed ascites or necrosis, or when mice became lethargic.
as §1

COc1cc(/C=C/c2cc(O)c3c(c2)C[C@@H]2C(C)(C)[C@H](O)CC[C@@]2(C)O3)cc(O)c1/C=C/c1c(C)noc1C [TTI-7106]
MTD ([1]; both sexes, mouse): 40 mg/kg

COc1cc(/C=C/c2cc(O)c3c(c2)C[C@@H]2C(C)(C)[C@H](O)CC[C@@]2(C)O3)cc2c1ccn2C [TTI-4242]
concentration at which high levels of surface calreticulin expression are induced (B16.F10 melanoma cells): below 2 nM
induction of surface calreticulin (B16.F10 melanoma cells; flow cytometry): induced surface calreticulin
maximum tolerated dosage (MTD) [1]: nearly identical MTD
toxicity ([1]; 30 mg/kg): low toxicity
tumors / mice showing initial tumor regression (B16.F10 tumors; during the period of schweinfurthin administration): 50%
tumor growth (rate / delay) (B16.F10 tumors; established s.c. B16.F10 tumors, schweinfurthin 30 mg/kg/day for 5 consecutive days, αPD-1 200 μg i.p. twice per week for 3 weeks): neither αPD-1 alone (FIG. 2C) nor TTI-4242 alone (FIG. 2D) impacted tumor growth rate

Source: US12427133B2, “Combination therapies comprising schweinfurthin compounds for treating cancer” (The Penn State Research Foundation, priority 2018, dated 2025)
